Measurements published in patent US10500164B2, “Nanoparticle-based combinatorial therapy” (The American University in Cairo, priority 2014, dated 2019).

Experiment: In-vitro drug release of DOX in Tris-HCl buffer pH 5 and PBS pH 7.4
Assay type: physicochemical
Conditions: free DOX solution control, over 4 hrs
Description: FIGS. 7A-B show according to an exemplary embodiment of the invention in-vitro release of free DOX, and DOX-NCs in Tris-HCl buffer pH 5 (FIG. 7A) and PBS pH 7.4 (FIG. 7B).
Since the release behavior of DOX-NCs at the desired site is of a great importance for formulating an ideal cancer-targeted drug delivery system, in-vitro release studies were performed at two different pH values were tested: pH 7.4, which mimics the pH of the blood stream and pH 5, which mimics the pH of the endosomes within cancer cells. In-vitro results […] that DOX-AgNCs, DOX-Ag/PVA NCs, DOX-Ag/PEG NCs and DOX-Ag/PVP NCs released 96.6%, 97.4%, 98% and 96.4% of DOX at pH 5. While at pH 7.4, the release percentages of DOX were 73.4%, 54.3%, 59.8% and 68.5% over the course of 6 hrs. […] In-vitro release is shown of free DOX, and DOX-NCs in Tris-HCl buffer pH 5 (FIG. 7A) and PBS pH 7.4 (FIG. 7B).

COc1cccc2c1C(=O)c1c(O)c3c(c(O)c1C2=O)C[C@@](O)(C(=O)CO)C[C@@H]3O[C@H]1C[C@H](N)[C@H](O)[C@H](C)O1 [free DOX, Doxorubicin]
release percentage of DOX (pH 5): 97.4%
release percentage of DOX (pH 7.4): 67.7%
